Results from patent US20090221624A1, “4-AMINOQUINOLINE COMPOUNDS FOR TREATING VIRUS-RELATED CONDITIONS” (priority 2005, published 2009).

Experiments:
DNG (D2-hRuPac cells) = experiment: DNG antiviral activity, D2-hRuPac cells, Renilla luciferase; format: cell-based, Dengue fever virus; conditions: Dengue virus, secondary screening
EBOV minigenome = experiment: microbe, parasite or virus in culture; format: cell-based, Ebola virus; conditions: Zaire ebolavirus; for inhibition at 25 µM: 24 h, read-out: EBOV Inh; for EC50: read-out: EBOV EC50
WNV (WN-hRuPac cells) = experiment: WNV antiviral activity, WN-hRuPac cells, Renilla luciferase; format: cell-based, West Nile virus; conditions: for EC50 / inhibition at 25 µM: West Nile virus; for EC50: Secondary Data, WNV, read-out: WNV EC50; for inhibition at 25 µM: primary screening, 25 μM final concentration, 24 hours, percent inhibition of viral replication, read-out: WNV Inh; for WNV TI: therapeutic index CC50/EC50, WNV
YFV (YF-hRuPac cells) = experiment: microbe, parasite or virus in culture; format: cell-based, yellow fever virus; conditions: for inhibition at 25 µM / EC50: Yellow fever virus; for inhibition at 25 µM: 24 h, read-out: YFV Inh; for EC50: read-out: YFV EC50
RSV minigenome = experiment: RSV minigenome-dependent β-galactosidase expression assay (RSV β-Gal); format: cell-based, respiratory syncytial virus; conditions: for EC50 / inhibition at 25 µM: human respiratory syncytial virus; for EC50: Secondary Data, RSV, read-out: RSV EC50; for inhibition at 25 µM: primary screening, 25 μM final concentration, 24 hours, percent inhibition of viral replication, read-out: RSV Inh; for RSV TI: therapeutic index CC50/EC50, RSV
SINV (SR19-F-luc cells) = experiment: SINV antiviral activity, SR19-F-luc cells, Firefly luciferase; format: cell-based; conditions: Sindbis virus; for inhibition at 25 µM: primary screening, 25 μM final concentration, 24 hours, percent inhibition of viral replication, read-out: SINV Inh; for EC50: secondary screening, SR19-F-luc cells
[1] = test system: HCV replicon (Clone A cells, Huh7, subgenomic hepatits C virus RNA); experiment: HCV Neo screening assay (HCV replicon, NPTII ELISA); format: cell-based, hepatitis C virus; conditions: for EC50 / inhibition at 25 µM: Hepatitis C virus, Huh-7; for EC50: Secondary Data, HCV; for inhibition at 25 µM: primary screening, 25 μM final concentration, 24 hours, percent inhibition of viral replication, read-out: HCV Inh; for HCV TI: therapeutic index CC50/EC50, HCV

Structure (SMILES)	EC50 (DNG (D2-hRuPac cells))	inhibition at 25 µM (EBOV minigenome)	EC50 (EBOV minigenome)	EC50 (WNV (WN-hRuPac cells))	inhibition at 25 µM (WNV (WN-hRuPac cells))	YFV TI (YFV (YF-hRuPac cells))	inhibition at 25 µM (YFV (YF-hRuPac cells))	EC50 (YFV (YF-hRuPac cells))	CC50 (in vitro; DNG CC50)	CC50 (in vitro; EBOV CC50)	CC50 (in vitro; HCV CC50)	CC50 (in vitro; RSV CC50)	CC50 (in vitro; SINV CC50)	CC50 (in vitro; WNV CC50)	CC50 (in vitro; YFV CC50)	EC50 (RSV minigenome)	inhibition at 25 µM (RSV minigenome)	RSV TI (RSV minigenome)	inhibition at 25 µM (SINV (SR19-F-luc cells))	EC50 (SINV (SR19-F-luc cells))	also measured
Cc1cc(Nc2ccc(C)c(C)c2)c2cc(Cl)ccc2n1 [Compound 47]	39.4 µM	49.5%	75 µM	8.66 µM	73%	2.86	77.7%	19.6 µM	56 µM	56 µM	7.84 µM	56 µM	56 µM	56 µM	56 µM	3.96 µM	96.4%	14.14	61.4%	7.23 µM	WNV TI (WNV (WN-hRuPac cells)): 6.47; EC50 [1]: 11 µM; inhibition at 25 µM [1]: 149%; HCV TI [1]: 0.71
CCOc1ccc2nc(C)cc(Nc3ccc(OC)c(OC)c3)c2c1 [Compound 56]	8.48 µM	89.3%	47.5 µM	3.5 µM	95.7%	7.93	98.7%	3.51 µM	27.8 µM	27.8 µM	6.69 µM	27.8 µM	27.8 µM	27.8 µM	27.8 µM	3.33 µM	99%	8.36	95.8%	2.33 µM	WNV TI (WNV (WN-hRuPac cells)): 7.95; EC50 [1]: 4.56 µM; inhibition at 25 µM [1]: 128%; HCV TI [1]: 1.47
CCOC(=O)c1cnc2c(C(F)(F)F)cccc2c1Nc1ccc(S(=O)(=O)Nc2nc(C)cc(C)n2)cc1 [Compound 72]	12 µM	86%	17.3 µM	13.3 µM	83.2%	3.59	90%	20.9 µM	≥ 75 µM	≥ 75 µM	≥ 75 µM	≥ 75 µM	≥ 75 µM	≥ 75 µM	≥ 75 µM	41.7 µM	50.3%	1.8	-4.36%	37.1 µM	WNV TI (WNV (WN-hRuPac cells)): 5.64; inhibition at 25 µM [1]: -24.8%
CCOC(=O)c1cnc2c(C)cc(C)cc2c1NCc1ccco1 [Compound 35]	11.1 µM	75.2%	6.64 µM	2.52 µM	104%	12.28	98.7%	3.03 µM	37.2 µM	37.2 µM	53 µM	37.2 µM	37.2 µM	37.2 µM	37.2 µM	1.04 µM	89.9%	35.77	44.9%	≥ 75 µM	WNV TI (WNV (WN-hRuPac cells)): 14.76; EC50 [1]: 8.35 µM; inhibition at 25 µM [1]: 67.5%; HCV TI [1]: 6.34
COc1ccc(Nc2cc(C)nc3ccccc23)cc1 [Compound 20]	42 µM	21%	50.1 µM	≥ 75 µM	38.4%	2.83	51%	26.5 µM	≥ 75 µM	≥ 75 µM	64.2 µM	≥ 75 µM	≥ 75 µM	≥ 75 µM	≥ 75 µM	8.52 µM	61.4%	8.8	75.5%	4.28 µM	inhibition at 25 µM [1]: 14.8%
